Each structure is given as a SMILES string. Calls of active or inactive are those of the source. The rule behind the calls is not given here.

For this series, the system named is rodent carcinogenicity bioassays, tumor incidence. The series can be described thus: CCRIS carcinogenicity studies. The gist of the method:
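NCI-built, expert-reviewed records of carcinogenicity and related test outcomes (mutagenicity, tumor promotion/inhibition) compiled from published and report sources, historical span 1985-2011, not updated.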

Turning to `CN(C)CCOC(C)(c1ccccc1)c1ccccn1` (stereo unspecified), the carcinogen call (Species: MOUSE, Strain/Sex: B6C3F1/FEMALE, Route: ORAL, Dose: 0, 190, 375, 750 PPM IN DIET FOR 2 YR (STUDY DURATION: 2 YR), Dose: 0, 190, 375, 750 PPM IN DIET FOR 2 YR (STUDY DURATION: 2 YR), Tumor Site: Type of Lesion: LIVER: HEPATOCELLULAR ADENOMA, THYROID: FOLLICULAR CELL ADENOMA) is “active; positive”; the carcinogen call (Species: MOUSE, Strain/Sex: B6C3F1/MALE, Route: ORAL, Dose: 0, 190, 375, 750 PPM IN DIET FOR 2 YR (STUDY DURATION: 2 YR), Dose: 0, 190, 375, 750 PPM IN DIET FOR 2 YR (STUDY DURATION: 2 YR), Tumor Site: Type of Lesion: LIVER: HEPATOCELLULAR ADENOMA, THYROID: FOLLICULAR CELL ADENOMA) is “active; positive”; the carcinogen call (Species: RAT, Strain/Sex: F344/FEMALE, Route: ORAL, Dose: 0, 500, 1000, 2000 PPM IN DIET FOR 2 YR (STUDY DURATION: 2 YR), Dose: 0, 500, 1000, 2000 PPM IN DIET FOR 2 YR (STUDY DURATION: 2 YR)) was “inactive; negative”.

As for `COC(=O)c1c(Cl)c(Cl)c(C(=O)OC)c(Cl)c1Cl`, the carcinogen call is “active; positive (study details not given in source; purity 96.7%)” (Species: Mouse, Strain/Sex: CD-1/Female (60/group), Route: Oral, Dose: 0, 100, 1,000, 3,500, 7,500 ppm in diet for 2 yr, Dose: 0, 100, 1,000, 3,500, 7,500 ppm in diet for 2 yr, Tumor Site: Type of Lesion: Liver: Hepatocellular tumors (Significant only at highest dose)); “inactive; negative (study details not given in source; purity 96.7%)” (Species: Mouse, Strain/Sex: CD-1/Male (60/group), Route: Oral, Dose: 0, 100, 1,000, 3,500, 7,500 ppm in diet for 2 yr, Dose: 0, 100, 1,000, 3,500, 7,500 ppm in diet for 2 yr); “active; positive (as evaluated by ca dpr; study details not given in source; purity 97.7” (Species: Rat, Strain/Sex: Sprague-Dawley/Female (60/group), Route: Oral, Dose: 0, 1, 10, 50, 500, 1,000 mg/kg/day in diet for 2 yr, Dose: 0, 1, 10, 50, 500, 1,000 mg/kg/day in diet for 2 yr, Tumor Site: Type of Lesion: Thyroid: Follicular cell adenomas. Liver: Hepatocellular tumors); “active; positive (evaluated as adverse effect by ca dpr; study details not given in sour” (Species: Rat, Strain/Sex: Sprague-Dawley/Male (60/group), Route: Oral, Dose: 0, 1, 10, 50, 500, 1,000 mg/kg/day in diet for 2 yr, Dose: 0, 1, 10, 50, 500, 1,000 mg/kg/day in diet for 2 yr, Tumor Site: Type of Lesion: Thyroid: Follicular cell adenomas).

Consider `Cc1cc(=O)[nH]c(=S)[nH]1`, for which the carcinogen call (Species: HAMSTER, Route: ORAL, Tumor Site: Type of Lesion: THYROID GLAND) is “active; positive”; the carcinogen call (Species: MOUSE, Route: ORAL, Tumor Site: Type of Lesion: THYROID GLAND) was “active; positive”; the carcinogen call (Species: RAT, Route: ORAL, Tumor Site: Type of Lesion: KIDNEY, THYROID GLAND) was “active; positive”.

Take `CN=C(NCc1cnc(Cl)s1)N[N+](=O)[O-]`: the carcinogen call by setting is: (Species: Rat, Strain/Sex: ???/Female (60/group), Route: Oral, Dose: 0, 150, 500, 1,500, 3,000 ppm in diet for 2 yr, Dose: 0, 150, 500, 1,500, 3,000 ppm in diet for 2 yr) “inactive; negative (study details not given in source; purity 95.2%)”; (Species: Rat, Strain/Sex: ???/Male (60/group), Route: Oral, Dose: 0, 150, 500, 1,500, 3,000 ppm in diet for 2 yr, Dose: 0, 150, 500, 1,500, 3,000 ppm in diet for 2 yr) “inactive; negative (study details not given in source; purity 95.2%)”.

For `O=NN(CCO)C(=O)NCCCl`, the carcinogen call (Species: RAT, Strain/Sex: F344/FEMALE, Route: ORAL, Dose: 0, 42 MG/L IN DRINKING WATER 5 D/WK FOR 30 WK (STUDY DURATION: LIFETIME), Tumor Site: Type of Lesion: LIVER: TUMOR, UTERUS: TUMOR, SKIN: TUMOR, Tumor Site: Type of Lesion: LIVER: TUMOR, UTERUS: TUMOR, SKIN: TUMOR) is “active; positive” and the carcinogen call (Species: RAT, Strain/Sex: F344/MALE, Route: ORAL, Dose: 0, 42 MG/L IN DRINKING WATER 5 D/WK FOR 30 WK (STUDY DURATION: LIFETIME), Tumor Site: Type of Lesion: LIVER: TUMOR, LUNG: TUMOR, MESOTHELIUM: TUMOR, SKIN: TUMOR, Tumor Site: Type of Lesion: LIVER: TUMOR, LUNG: TUMOR, MESOTHELIUM: TUMOR, SKIN: TUMOR) is “active; positive”.

`C=CCCl`: the carcinogen call reads like this: (Species: MOUSE, Strain/Sex: B6C3F1/FEMALE, Route: GAVAGE, Dose: 0, 129, 258 MG/KG IN CORN OIL 5 D/WK FOR 78 (STUDY DURATION: 92 WK), Dose: 0, 129, 258 MG/KG IN CORN OIL 5 D/WK FOR 78 (STUDY DURATION: 92 WK), Tumor Site: Type of Lesion: FORESTOMACH: SQUAMOUS CELL CARCINOMA OR PAPILLOMA) “equivocal”; (Species: MOUSE, Strain/Sex: B6C3F1/MALE, Route: GAVAGE, Dose: 0, 172, 199 MG/KG IN CORN OIL 5 D/WK FOR 78 (STUDY DURATION: 92 WK), Dose: 0, 172, 199 MG/KG IN CORN OIL 5 D/WK FOR 78 (STUDY DURATION: 92 WK), Tumor Site: Type of Lesion: FORESTOMACH: SQUAMOUS CELL CARCINOMA) “equivocal”; (Species: RAT, Strain/Sex: OSBORNE-MENDEL/FEMALE, Route: GAVAGE, Dose: 0, 55, 73 MG/KG N CORN OIL 5 D/WK FOR 78 (STUDY DURATION: 108-111 WK), Dose: 0, 55, 73 MG/KG N CORN OIL 5 D/WK FOR 78 (STUDY DURATION: 108-111 WK)) “inactive; negative”; (Species: RAT, Strain/Sex: OSBORNE-MENDEL/MALE, Route: GAVAGE, Dose: 0, 57, 77 MG/KG IN CORN OIL 5 D/WK FOR 78 (STUDY DURATION: 108-111 WK), Dose: 0, 57, 77 MG/KG IN CORN OIL 5 D/WK FOR 78 (STUDY DURATION: 108-111 WK)) “inactive; negative”.

Consider `O=C([O-])CNCCNCC(=O)[O-].O=C([O-])CNCCNCC(=O)[O-].O=C([O-])CNCCNCC(=O)[O-].[Fe+3].[Fe+3]`, for which the carcinogen call (Species: RAT, Strain/Sex: WISTAR/MALE, Route: INTRAPERITONEAL, Dose: 0, 10 MG/KG BW 2/WK FOR 3 MO (STUDY DURATION: 1 YR), Tumor Site: Type of Lesion: KIDNEY: TUMOR) was “active; positive”.

In the case of `O=C[C@H](O)[C@@H](O)[C@H](O)CO`, the carcinogen call (Species: RAT, Strain/Sex: FISCHER 344/MALE, FEMALE (50/GROUP), Route: DIET, Dose: 0, 2.5, 5% IN DIET FOR 104 WKS (STUDY DURATION: 104 WKS), Dose: 0, 2.5, 5% IN DIET FOR 104 WKS (STUDY DURATION: 104 WKS)) was “inactive; negative”.

In the case of `CCc1nc(N)nc(N)c1-c1ccc(Cl)cc1`, the carcinogen call was “inactive; negative” (Species: MOUSE, Strain/Sex: B6C3F1/FEMALE, Route: ORAL, Dose: 0, 500, 1000 PPM IN DIET, Dose: 0, 500, 1000 PPM IN DIET); “inactive; negative” (Species: RAT, Strain/Sex: F344/FEMALE, Route: ORAL, Dose: 0, 200, 400 PPM IN DIET 5 D/WK, Dose: 0, 200, 400 PPM IN DIET 5 D/WK); “inactive; negative” (Species: RAT, Strain/Sex: F344/MALE, Route: ORAL, Dose: 0, 200, 400 PPM IN DIET 5 D/WK, Dose: 0, 200, 400 PPM IN DIET 5 D/WK).

For the compound `CC(=O)[O-].CC(=O)[O-].[OH-].[OH-].[OH-].[OH-].[Pb+2].[Pb+2].[Pb+2]`, the carcinogen call was “active; positive” (Species: MOUSE, Strain/Sex: STRAIN-A/MALE,FEMALE, Route: INTRAPERITONEAL, Dose: 30, 75, 150 MG/KG 3/WK FOR 5 WK, Dose: 30, 75, 150 MG/KG 3/WK FOR 5 WK, Tumor Site: Type of Lesion: LUNG: ADENOMA); “active; positive” (Species: MOUSE, Strain/Sex: SWISS/MALE, Route: ORAL, Dose: 0.1% IN DIET FOR TWO YR, Tumor Site: Type of Lesion: KIDNEY: ADENOMA, CARCINOMA); “active; positive” (Species: RAT, Strain/Sex: SPRAGUE-DAWLEY/MALE, Route: ORAL, Dose: 1% IN DIET, Tumor Site: Type of Lesion: KIDNEY: ADENOMA, CARCINOMA, BRAIN: GLIOMA); “active; positive” (Species: RAT, Strain/Sex: WISTAR/MALE,FEMALE, Route: ORAL, Dose: 0.1, 1.0% IN DIET FOR UP TO 29 MO, Tumor Site: Type of Lesion: KIDNEY: CARCINOMA).

`CCOP(=S)(OCC)Oc1ccc([N+](=O)[O-])cc1`: the carcinogen call by setting is: (Species: MOUSE, Strain/Sex: B6C3F1/FEMALE, Route: ORAL, Dose: 0, 80, 160 PPM IN DIET, Dose: 0, 80, 160 PPM IN DIET) “inactive; negative”; (Species: MOUSE, Strain/Sex: B6C3F1/MALE, Route: ORAL, Dose: 0, 80, 160 PPM IN DIET, Dose: 0, 80, 160 PPM IN DIET) “inactive; negative”; (Species: RAT, Strain/Sex: OSBORNE-MENDEL/FEMALE, Route: ORAL, Dose: 0, 23, 45 PPM IN DIET FOR 80 WK (STUDY DURATION: 112-113 WK), Dose: 0, 23, 45 PPM IN DIET FOR 80 WK (STUDY DURATION: 112-113 WK), Tumor Site: Type of Lesion: ADRENAL GLAND: CORTICAL ADENOMA OR CARCINOMA) “equivocal”; (Species: RAT, Strain/Sex: OSBORNE-MENDEL/MALE, Route: ORAL, Dose: 0, 32, 63 PPM IN DIET FOR 80 WK (STUDY DURATION: 112-113 WK), Dose: 0, 32, 63 PPM IN DIET FOR 80 WK (STUDY DURATION: 112-113 WK), Tumor Site: Type of Lesion: ADRENAL GLAND: CORTICAL ADENOMA OR CARCINOMA) “equivocal”.
